Structures can show the parent of a compound that is named as a salt. Where two headings read alike, the source gives them in different places.
Tests used:
[1] = test system: 2-phenyl-1,4-benzoquinone-induced writhing in mice; experiment: 2-phenyl-1,4-benzoquinone-induced writhing (PQW) test in mice (analgesic activity); format: in vivo; conditions: for PQW Percent writhing inhib.: s.c.; for ED50 / inhibition in vivo at 10 mg/kg: Mus musculus, sc; for inhibition in vivo at 10 mg/kg: 10 mg/kg s.c., read-out: PQW Percent writhing inhib. @ 10 mg/kg s.c.
From the text: Compounds I of the present invention are also useful as analgesic agents due to their ability to alleviate pain in mammals. […] Exptl. Biol. Med., 95, 729 (1957)].

[2] = test system: Tetrabenazine induced ptosis in mice; experiment: Prevention of tetrabenazine (TBZ) induced ptosis in mice (antidepressant activity); format: in vivo; conditions: Mus musculus; for inhibition in vivo at 20 mg/kg: 20 mg/kg i.p., read-out: TBZ Percent ptosis inhit. @ 20 mg/kg i.p.
Experimental: The method used is as follows.
Male mice weighing 20 to 30 grams are used in test groups of five subjects. All compounds are dissolved, or suspended with one drop of a non-ionic surfactant in distilled water and administered in volumes of 10 ml/kg of body weight. Tetrabenazine (TBZ) solution is made from methanesulfonate salt and the concentration is adjusted to enable the administration of 40 mg/kg of base by intraperitoneal injection (i.p.).
If the test compound is administered intraperitoneally, TBZ is injected 30 minutes after administration. If the test compound is administered orally (p.o.), TBZ is injected 60 minutes after the administration. A control group receives solvent and TBZ by the same route and at the same intervals as the drug groups.
The total score for each group of five will therefore be from 0 to 20 and these scores are used as indications of drug activity.
The vehicle-control group score is used as a determinate of the validity of each test.
A linear-regression analysis is used to estimate ED50 values.

[3] = footnote a: determined by oral administration, mice, TBZ 40 mg/kg i.p., read-out: TBZ ED50 i.p.

In the case of `CN(C)CCC1(c2ccccc2)COc2ccccc21.O=C(O)C(=O)O` (stereo not shown) [2-(3-Phenyl-2,3-dihydrobenzofuran-3-yl)-N,N-dimethylethylamine oxalate], the “PQW Percent writhing inhib.” value ([1]; footnote b: at 20 mg/kg) is reported as 49% and the ED50 [2, 3] is reported as 3.03 mg/kg.
Work on `CN(CCc1ccccc1)CCC1(c2ccccc2)COc2ccccc21.O=C(O)/C=C/C(=O)O` (stereo not shown) [2-(3-Phenyl-2,3-dihydrobenzofuran-3-yl)-N-methyl-N-phenethylethylamine fumarate] yielded an ED50 [1] of 20 mg/kg and an inhibition in vivo at 20 mg/kg ([2]; ip, mice) of 17%.
`CN(CCCC1(c2ccccc2)COc2ccccc21)C(=O)OCC(Cl)(Cl)Cl` (stereo not shown) [3-(3-Phenyl-2,3-dihydrobenzofuran-3-yl)-N-(2,2,2-trichloroethoxycarbonyl)-N-methylpropylamine] showed an inhibition in vivo at 10 mg/kg [1] of 32%.
Work on `CN(C)CCCN1c2ccccc2CCc2ccccc21` [imipramine, reference compound] yielded an ED50 ([2]; po, read-out: antidepressant ED50) of 5.5 mg/kg.
Work on `CNCCCC1(c2ccccc2)COc2ccccc21.Cl` (stereo not shown) [3-(3-Phenyl-2,3-dihydrobenzofuran-3-yl)-N-methylpropylamine hydrochloride] yielded an inhibition in vivo at 10 mg/kg [1] of 54% and an ED50 ([2]; ip, mice, TBZ 40 mg/kg i.p., read-out: TBZ ED50 i.p.) of 13.7 mg/kg.
`CN(CCC1(c2ccccc2)COc2ccccc21)CC1CC1.O=C(O)/C=C/C(=O)O` (stereo not shown) [2-(3-Phenyl-2,3-dihydrobenzofuran-3-yl)-N-cyclopropylmethyl-N-methylethylamine fumarate] showed an ED50 [1] of 6.27 mg/kg and an inhibition in vivo at 20 mg/kg ([2]; ip, mice) of 22%.
`CN(C#N)CCC1(c2ccccc2)COc2ccccc21` (stereo not shown) [2-(3-Phenyl-2,3-dihydrobenzofuran-3-yl)-N-cyano-N-methylethylamine] showed an inhibition in vivo at 10 mg/kg [1] of 59% and an inhibition in vivo at 20 mg/kg ([2]; ip, mice) of 20%.
Compound `CN(C)CCC1(c2ccccc2F)COc2ccccc21` (stereo not shown) [3-[3-(2-Fluorophenyl)-2,3-dihydrobenzofuran-3-yl]-N,N--dimethylethylamine fumarate] has an inhibition in vivo at 10 mg/kg [1] of 35% and an inhibition in vivo at 20 mg/kg ([2]; ip, mice) of 60%.
`CN(CCCC1(c2ccccc2)COc2ccccc21)CCc1ccccc1` (stereo not shown) [3-(3-Phenyl-2,3-dihydrobenzofuran-3-yl)-N-methyl-N-phenethylpropylamine oxalate] was tested, and the inhibition in vivo at 10 mg/kg [1] was 46% and the inhibition in vivo at 20 mg/kg ([2]; ip, mice) was 0%.
Work on `Cc1ccccc1C1(CCN(C)C)COc2ccccc21` (stereo not shown) [3-[3-(2-Tolyl)-2,3-dihydrobenzofuran-3-yl]-N,N-dimethylethylamine fumarate] yielded an inhibition in vivo at 10 mg/kg [1] of 34% and an inhibition in vivo at 20 mg/kg ([2]; ip, mice) of 10%.
`CN(CCC1(c2ccccc2)COc2ccccc21)C(=O)OCC(Cl)(Cl)Cl` (stereo not shown) [2-(3-Phenyl-2,3-dihydrobenzofuran-3-yl)-N-(2,2,2-trichloroethoxycarbonyl)-N-methylethylamine] showed an inhibition in vivo at 20 mg/kg ([2]; ip, mice) of 6%.
In the case of `Cc1ccc(C2(CCN(C)C)COc3ccccc32)cc1` (stereo not shown) [3-[3-(4-Tolyl)-2,3-dihydrobenzofuran-3-yl]-N,N-dimethylethylamine fumarate], the inhibition in vivo at 10 mg/kg [1] is reported as 61% and the inhibition in vivo at 20 mg/kg ([2]; ip, mice) is reported as 20%.
For `CN(C)CCCC1(c2ccccc2)COc2ccc(Cl)cc21.O=C(O)C(=O)O` (stereo not shown) [3-(3-Phenyl-5-chloro-2,3-dihydrobenzofuran-3-yl)-N,N-dimethylpropylamine oxalate], the “PQW Percent writhing inhib.” value ([1]; footnote b: at 20 mg/kg) was 38% and the inhibition in vivo at 20 mg/kg ([2]; ip, mice) was 15%.
`CN(C)CCCC1(c2ccccc2)COc2ccccc21.O=C(O)C(=O)O` (stereo not shown) [3-(3-Phenyl-2,3-dihydrobenzofuran-3-yl)-N,N-dimethylpropylamine oxalate] was tested, and the “PQW Percent writhing inhib.” value ([1]; footnote c: at 25 mg/kg) was 59% and the inhibition in vivo at 20 mg/kg ([2]; ip, mice) was 37%.
For `CN(CCC#N)CCC1(c2ccccc2)COc2ccccc21` (stereo not shown) [2-(3-Phenyl-2,3-dihydrobenzofuran-3-yl)-N-(2-cyanoethyl)-N-methylethylamineoxalate], the “PQW Percent writhing inhib.” value ([1]; footnote b: at 20 mg/kg) was 33% and the inhibition in vivo at 20 mg/kg ([2]; ip, mice) was 21%.
Work on `CNCCC1(c2ccccc2)COc2ccccc21.Cl` (stereo not shown) [2-(3-Phenyl-2,3-dihydrobenzofuran-3-yl)-N-methylethylamine hydrochloride] yielded an inhibition in vivo at 10 mg/kg [1] of 53% and an ED50 [2, 3] of 4.99 mg/kg.
`CN(CCCC1(c2ccccc2)COc2ccccc21)CC1CC1` (stereo not shown) [3-(3-Phenyl-2,3-dihydrobenzofuran-3-yl)-N-cyclopropylmethyl-N-methylpropylamine oxalate] showed an inhibition in vivo at 10 mg/kg [1] of 48% and an inhibition in vivo at 20 mg/kg ([2]; ip, mice) of 10%.

Reference: US4602035A, “Antidepressant (3-aryl-2,3-dihydrobenzofuran-3-yl)alkylamines” (Hoechst-Roussel Pharmaceuticals Inc., priority 1983, dated 1986)
